Reference: BindingDB's records for doi:10.1021/jm040160b (Research Triangle Institute, 2005)

Biological target: Neuronal acetylcholine receptor subunit alpha-4/beta-2 (Rattus norvegicus, UniProt P09483+P12390)
Experiment: Inhibition of [3H]epibatidine binding to Nicotinic acetylcholine receptor alpha4-beta2 in rat cerebral cortex

Sequence of Neuronal acetylcholine receptor subunit alpha-4/beta-2 (P09483 whole entry): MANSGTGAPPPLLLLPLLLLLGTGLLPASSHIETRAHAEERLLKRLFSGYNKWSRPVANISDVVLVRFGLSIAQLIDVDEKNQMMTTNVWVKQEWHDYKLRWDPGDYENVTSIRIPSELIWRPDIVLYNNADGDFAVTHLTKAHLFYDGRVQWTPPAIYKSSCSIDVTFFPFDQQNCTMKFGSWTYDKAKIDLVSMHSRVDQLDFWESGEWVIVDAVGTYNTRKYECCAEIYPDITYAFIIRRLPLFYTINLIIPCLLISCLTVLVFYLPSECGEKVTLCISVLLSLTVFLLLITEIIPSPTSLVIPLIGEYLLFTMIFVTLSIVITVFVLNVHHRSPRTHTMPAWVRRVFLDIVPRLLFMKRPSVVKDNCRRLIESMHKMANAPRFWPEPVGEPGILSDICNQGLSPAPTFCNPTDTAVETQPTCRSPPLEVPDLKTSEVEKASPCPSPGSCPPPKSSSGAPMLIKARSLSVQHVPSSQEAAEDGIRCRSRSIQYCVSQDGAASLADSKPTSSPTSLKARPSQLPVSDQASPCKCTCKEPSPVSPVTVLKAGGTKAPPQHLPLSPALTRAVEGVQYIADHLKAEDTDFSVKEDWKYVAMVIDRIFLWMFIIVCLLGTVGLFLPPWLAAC
Sequence of Neuronal acetylcholine receptor subunit alpha-4/beta-2 (P12390 whole entry): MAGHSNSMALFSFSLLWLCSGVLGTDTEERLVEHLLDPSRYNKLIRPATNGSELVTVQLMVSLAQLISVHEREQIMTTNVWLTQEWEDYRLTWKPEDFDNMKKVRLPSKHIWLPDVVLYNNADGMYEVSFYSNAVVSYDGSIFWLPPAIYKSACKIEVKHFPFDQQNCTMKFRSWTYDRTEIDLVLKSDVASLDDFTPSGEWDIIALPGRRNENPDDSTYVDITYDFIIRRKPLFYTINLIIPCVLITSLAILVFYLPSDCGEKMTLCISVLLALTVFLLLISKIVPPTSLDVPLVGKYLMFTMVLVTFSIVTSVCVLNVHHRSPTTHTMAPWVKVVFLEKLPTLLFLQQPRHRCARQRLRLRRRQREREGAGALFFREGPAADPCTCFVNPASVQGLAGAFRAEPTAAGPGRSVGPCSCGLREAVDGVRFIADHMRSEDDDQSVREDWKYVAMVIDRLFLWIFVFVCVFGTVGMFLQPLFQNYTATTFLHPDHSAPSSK

Clc1cncc(C2CC3CCC2N3)c1 (stereo unspecified) [2-(5-Chloro-pyridin-3-yl)-7-aza-bicyclo[2.2.1]heptane]
Ki: 60 pM
